Assay results as given in ChEMBL document CHEMBL6071135, “New resorcylic acid derivatives of Lysimachia tengyuehensis against MRSA and VRE by interfering with bacterial metabolic imbalance” (Eur J Med Chem, 2024).
≈ marks a conversion by molar mass, not a printed value. Calls of active or inactive are those of the source. No cut-off for these calls is given here.

Tests used:
[1] = system: Cell membrane; experiment: Induction of cell membrane depolarization in vancomycin-resistant Enterococcus faecalis ATCC51299 assessed as reduction in fluorescence intensity measured for 30 mins by DiSC3(5) dye-based fluorescence assay; type: subcellular
[2] = system: Enterococcus faecalis; experiment: Antibacterial activity against vancomycin-resistant Enterococcus faecalis ATCC51299 measured after 20 passages by broth microdilution method; type: functional, organism-based
[3] = system: Enterococcus faecalis; experiment: Induction of morphological changes in vancomycin-resistant Enterococcus faecalis ATCC51299 assessed as appearance of clustered bacterial surface at 4 times MIC measured for 5 hrs by field emission scanning electron microscopy based analysis; type: functional, organism-based
[4] = system: Enterococcus faecalis; experiment: Antimicrobial activity against vancomycin-resistant Enterococcus faecalis ATCC51299 assessed as reduction in bacterial growth in presence of phosphatidylglycerol by checkerboard broth dilution method; type: functional, organism-based
[5] = system: Staphylococcus aureus; experiment: Induction of morphological changes in methicillin-resistant Staphylococcus aureus assessed as appearance of died bacterial surface at 4 times MIC measured for 5 hrs by field emission scanning electron microscopy based analysis; type: functional, organism-based
[6] = system: Enterococcus faecalis; experiment: Bactericidal activity against vancomycin-resistant Enterococcus faecalis ATCC51299 measured after 24 hrs by CLSI based broth microdilution method; type: functional
[7] = system: Enterococcus faecalis; experiment: Induction of morphological changes in biofilm of vancomycin-resistant Enterococcus faecalis ATCC51299 assessed as appearance of broken biofilm at 1 to 4 times MIC incubated for 24 hrs by DAPI staining based fluorescence microscopy analysis; type: functional, organism-based
[8] = system: Staphylococcus aureus; experiment: Antibacterial activity against methicillin-resistant Staphylococcus aureus at sub-MIC concentration measured after 24 hrs by CLSI based broth microdilution method; type: functional, organism-based
[9] = system: Staphylococcus aureus; experiment: Bactericidal activity against methicillin-resistant Staphylococcus aureus assessed as reduction in number of bacteria at 1 time MIC measured within 40 mins by time-kill assay; type: functional, organism-based
[10] = system: Staphylococcus aureus; experiment: Antibiofilm activity in methicillin-resistant Staphylococcus aureus assessed as increase in biofilm destruction incubated for 24 hrs by crystal violet staining based analysis; type: functional, organism-based
[11] = system: Enterococcus faecalis; experiment: Antimicrobial activity against vancomycin-resistant Enterococcus faecalis ATCC51299 assessed as reduction in bacterial growth in presence of peptidoglycan by checkerboard broth dilution method; type: functional, organism-based
[12] = system: Enterococcus faecalis; experiment: Antibiofilm activity in vancomycin-resistant Enterococcus faecalis ATCC51299 assessed as increase in biofilm destruction incubated for 24 hrs by crystal violet staining based analysis; type: functional, organism-based
[13] = system: Staphylococcus aureus; experiment: Antibacterial activity against methicillin-resistant Staphylococcus aureus measured after 20 passages by broth microdilution method; type: functional, organism-based
[14] = system: Cell membrane; experiment: Induction of cell membrane damage in methicillin-resistant Staphylococcus aureus assessed as increase in ROS accumulation at 4 times MIC incubated for 1 hr by fluorescence based analysis; type: subcellular
[15] = system: Staphylococcus aureus; experiment: Antimicrobial activity against methicillin-resistant Staphylococcus aureus assessed as increase in cell membrane fluidity at upto 4 times MIC incubated for 35 mins by Laurdan-GP dye based spectramax gemini XPS microplate reader analysis; type: functional, organism-based
[16] = system: Staphylococcus aureus; experiment: Antibacterial activity against methicillin-resistant Staphylococcus aureus measured after 24 hrs by CLSI based broth microdilution method; type: functional
[17] = system: Enterococcus faecalis; experiment: Induction of morphological changes in vancomycin-resistant Enterococcus faecalis ATCC51299 assessed as appearance of flocculated bacterial surface at 4 times MIC measured for 5 hrs by field emission scanning electron microscopy based analysis; type: functional, organism-based
[18] = system: Enterococcus faecalis; experiment: Antimicrobial activity against vancomycin-resistant Enterococcus faecalis ATCC51299 assessed as increase in cell membrane fluidity at upto 4 times MIC incubated for 35 mins by Laurdan-GP dye based spectramax gemini XPS microplate reader analysis; type: functional, organism-based
[19] = system: Enterococcus faecalis; experiment: Induction of morphological changes in biofilm of vancomycin-resistant Enterococcus faecalis ATCC51299 assessed as appearance of destroyed biofilm at 1 to 4 times MIC incubated for 24 hrs by DAPI staining based fluorescence microscopy analysis; type: functional, organism-based
[20] = system: Enterococcus faecalis; experiment: Bactericidal activity against vancomycin-resistant Enterococcus faecalis ATCC51299 assessed as reduction in number of bacteria at 2 times MIC measured within 15 mins by time-kill assay; type: functional, organism-based
[21] = system: Staphylococcus aureus; experiment: Bactericidal activity against methicillin-resistant Staphylococcus aureus measured after 24 hrs by CLSI based broth microdilution method; type: functional
[22] = system: Enterococcus faecalis; experiment: Antibacterial activity against vancomycin-resistant Enterococcus faecalis ATCC51299 measured after 24 hrs by CLSI based broth microdilution method; type: functional
[23] = system: Staphylococcus aureus; experiment: Induction of morphological changes in biofilm of methicillin-resistant Staphylococcus aureus assessed as decrease in biofilm density at 1 to 4 times MIC incubated for 24 hrs by DAPI staining based fluorescence microscopy analysis; type: functional, organism-based
[24] = system: Staphylococcus aureus; experiment: Induction of morphological changes in methicillin-resistant Staphylococcus aureus assessed as appearance of ruptured bacterial surface at 4 times MIC measured for 5 hrs by field emission scanning electron microscopy based analysis; type: functional, organism-based
[25] = system: Staphylococcus aureus; experiment: Antimicrobial activity against methicillin-resistant Staphylococcus aureus assessed as reduction in bacterial growth in presence of phosphatidylethanolamine by checkerboard broth dilution method; type: functional, organism-based
[26] = system: Enterococcus faecalis; experiment: Antimicrobial activity against vancomycin-resistant Enterococcus faecalis ATCC51299 assessed as reduction in bacterial growth in presence of phosphatidylethanolamine by checkerboard broth dilution method; type: functional, organism-based
[27] = system: Cell membrane; experiment: Induction of cell membrane damage in methicillin-resistant Staphylococcus aureus assessed as increase in nucleic acid leakage at 4 times MIC incubated for 2 hrs by absorbance based analysis; type: subcellular
[28] = system: Staphylococcus aureus; experiment: Induction of morphological changes in biofilm of methicillin-resistant Staphylococcus aureus assessed as appearance of destroyed biofilm at 1 to 4 times MIC incubated for 24 hrs by DAPI staining based fluorescence microscopy analysis; type: functional, organism-based
[29] = system: Staphylococcus aureus; experiment: Antimicrobial activity against methicillin-resistant Staphylococcus aureus assessed as reduction in bacterial growth in presence of phosphatidylglycerol by checkerboard broth dilution method; type: functional, organism-based
[30] = system: Enterococcus faecalis; experiment: Induction of morphological changes in vancomycin-resistant Enterococcus faecalis ATCC51299 assessed as appearance of died bacterial surface at 4 times MIC measured for 5 hrs by field emission scanning electron microscopy based analysis; type: functional, organism-based
[31] = system: Staphylococcus aureus; experiment: Bactericidal activity against methicillin-resistant Staphylococcus aureus assessed as reduction in number of bacteria at 2 times MIC measured within 15 mins by time-kill assay; type: functional, organism-based
[32] = system: Enterococcus faecalis; experiment: Antibacterial activity against vancomycin-resistant Enterococcus faecalis ATCC51299 at sub-MIC concentration measured after 24 hrs by CLSI based broth microdilution method; type: functional, organism-based
[33] = system: Cell membrane; experiment: Induction of cell membrane damage in vancomycin-resistant Enterococcus faecalis ATCC51299 assessed as increase in nucleic acid leakage at 4 times MIC incubated for 2 hrs by absorbance based analysis; type: subcellular
[34] = system: Cell membrane; experiment: Induction of cell membrane damage in vancomycin-resistant Enterococcus faecalis ATCC51299 assessed as increase in ROS accumulation at 4 times MIC incubated for 1 hr by fluorescence based analysis; type: subcellular
[35] = system: Enterococcus faecalis; experiment: Induction of morphological changes in vancomycin-resistant Enterococcus faecalis ATCC51299 assessed as appearance of ruptured bacterial surface at 4 times MIC measured for 5 hrs by field emission scanning electron microscopy based analysis; type: functional, organism-based
[36] = system: RAW264.7; experiment: Cytotoxicity against mouse RAW264.7 cells at 16 ug/ml incubated for 24 hrs by MTT assay; type: toxicity, cell-based; details: raw264.7, 24 h, dose 16 µg/ml
[37] = system: Enterococcus faecalis; experiment: Bactericidal activity against vancomycin-resistant Enterococcus faecalis ATCC51299 assessed as reduction in number of bacteria at 1 time MIC measured within 40 mins by time-kill assay; type: functional, organism-based

Structure (SMILES) | Activity [1] | Activity [2] | Activity [3] | Activity [4] | Activity [5] | MBC [6] [µg/mL] | Activity [7] | Activity [8] | Activity [9] | Activity [10] | Activity [11] | Activity [12] | Activity [13] | Activity [14] | Activity [15] | Activity [16] | MIC [16] [µg/mL] | Activity [17] | Activity [18] | Activity [19] | further results
C=CCCCCCCCCCCCc1cc(O)cc(O)c1C(=O)O | Active | inactive | Active | Active | Active | 4 (≈ 12 µM) | Active | Active | Active | Dose-Dependent Effect | inactive | Dose-Dependent Effect | inactive | Active | Active | Active | 4 (≈ 12 µM) | Active | Active | Active | Activity [20]: Active; MBC [21]: 4 µg/mL (≈ 12 µM); MIC [22]: 4 µg/mL (≈ 12 µM); Activity [23]: Active; Activity [24]: Active; Activity [25]: inactive; Activity [26]: inactive; Activity [27]: Active; Activity [28]: Active; Activity [29]: inactive; Activity [30]: Active; Activity [31]: Active; Activity [32]: Active; Activity [33]: Active; Activity [34]: Active; Activity [35]: Active; Activity [36]: Non-Toxic; Activity [37]: Active
C=CCCCCCCCCCCCc1cc(O)cc(O)c1 | Active | inactive | Active | Active | Active | 4 (≈ 13.8 µM) | Active | Active | Active | Dose-Dependent Effect | inactive | Dose-Dependent Effect | inactive | Active | Active | Active | 4 (≈ 13.8 µM) | Active | Active | Active | Activity [20]: Active; MBC [21]: 4 µg/mL (≈ 13.8 µM); MIC [22]: 4 µg/mL (≈ 13.8 µM); Activity [23]: Active; Activity [24]: Active; Activity [25]: inactive; Activity [26]: inactive; Activity [27]: Active; Activity [28]: Active; Activity [29]: inactive; Activity [30]: Active; Activity [31]: Active; Activity [32]: Active; Activity [33]: Active; Activity [34]: Active; Activity [35]: Active; Activity [36]: Non-Toxic; Activity [37]: Active
